Measured values reported in patent publication US20090130229A1, “Antitumor uses of compound” (Cell Therapeutics, Inc., priority 2002, published 2009).
Entries after “also recorded” stand apart in the source; their conditions may differ.

Experiments:
Met = molecular target: T1, Met (Homo sapiens, UniProt P08581); assay: Met autophosphorylation and expression in TPC-1 cells (IP/Western blotting); assay type: cell-based
T1 construct: endogenous in cells; host or cells: TPC-1 (human papillary thyroid carcinoma)
Protocol: FIG. 4. Inhibition of Met autophosphorylation and expression in human papillary thyroid carcinoma cells (TPC-1) treated with Cpd1. A): TPC-1 cells were exposed to solvent (−) or the indicated concentrations of Cpd 1 for 72 h. Equal amounts of protein were used for immunoprecipitation (IP) with anti-Met antibody or for the preparation of whole cell lysates (WCL). Immunoprecipitated proteins and WCLs were separated by SDS-PAGE, transferred to nitrocellulose membranes, and subjected to Western blotting with anti-pTyr or anti-Met antibodies. B): Cells were treated as in A. Cell extracts were immunoprecipitated with anti-pTyr antibody and probed with anti-Met antibody. C): Cells were serum-starved for 24 h and exposed to solvent or Cpd1 (60 μM) during the last 18 h. Then they were left untreated (−) or stimulated with 20 ng/ml HGF (+), for 10 min. Cell lysates were immunoprecipitated with anti-Met and probed with anti-pTyr or anti-Met antibody. Drug treatment abolished the constitutive or HGF-induced Met tyrosine phosphorylation and induced a reduction of Met expression.
The following human medullary thyroid carcinoma (MTC) cell lines were used in this study. The TT cell line derived from a MEN2A-associated MTC characterized by expression of the RET oncogene carrying the mutation C634W. The MZ-CRC-1 cell line derived from MEN2B-associated MTC characterized by expression of the RET oncogene carrying the mutation M918T. TT cells were cultivated in Ham's F12 medium (BioWhittaker, Verviers, Belgium) supplemented with 15% fetal calf serum (FCS) (Life Technologies, Inc., Gaithersburg, Md.) whereas MZ-CRC-1 cells were grown in Dulbecco's modified Eagle's medium (DMEM) (BioWhittaker) supplemented with 10% FCS. The human papillary thyroid carcinoma cell line TPC-1 which was used as a model of Met overexpression, was routinely cultivated in DMEM with 10% FCS. […]
(§1) For immunoprecipitation experiments, cells were treated with Cpd1 or solvent for the indicated times. […] Protein concentration was determined by the BCA reagent (Pierce). […]

PDGF-R = PDGF-R autophosphorylation and expression in whole cells (2N5A, Swiss 3T3); assay type: cell-based, mouse
Protocol: FIG. 5. Inhibition of PDGF-R autophosphorylation and expression in whole cells by Cpd 1. A): 2N5A cells (NIH3T3 transformed by the COL1A1/PDGFB rearrangement generating autocrine stimulation of PDGF-R) were treated with Cpd 1 at the indicated concentrations, for 72 h. Cell extracts were immunoprecipitated with anti-PDGF-R and subjected to Western blotting with anti-pTyr or anti-PDGF-R antibodies. B): Swiss 3T3 cells were serum starved for 24 h and then treated with Cpd1 at the indicated concentrations, for 18 h. After stimulation with 1 nM PDGF for 5 min, whole cell lysates were prepared and subjected to Western blotting with anti-pTyr or anti-PDGF-R. Protein loading by anti-actin blot is shown.
The following human medullary thyroid carcinoma (MTC) cell lines were used in this study. The TT cell line derived from a MEN2A-associated MTC characterized by expression of the RET oncogene carrying the mutation C634W. The MZ-CRC-1 cell line derived from MEN2B-associated MTC characterized by expression of the RET oncogene carrying the mutation M918T. TT cells were cultivated in Ham's F12 medium (BioWhittaker, Verviers, Belgium) supplemented with 15% fetal calf serum (FCS) (Life Technologies, Inc., Gaithersburg, Md.) whereas MZ-CRC-1 cells were grown in Dulbecco's modified Eagle's medium (DMEM) (BioWhittaker) supplemented with 10% FCS. The human papillary thyroid carcinoma cell line TPC-1 which was used as a model of Met overexpression, was routinely cultivated in DMEM with 10% FCS. N592 cells, derived from a human SCLC, were characterized by Kit activation through autocrine stimulation by the SCF ligand. N592 cells were cultured in RPMI 1640 supplemented with 10% FCS. The mouse SWISS3T3 and NIH3T3 fibroblasts were cultured in DMEM with 10% calf serum (Colorado Serum Company, Denver, Colo.). In addition, NIH3T3 cells transfected with different oncogenes were used. NIH3T3^MEN2A transfectants express the short isoform of the RET-MEN2A (C634R) oncogene; NIH3T3^KITΔ559 cells express KIT carrying the activating mutation Δ559 found in GISTs; NIH3T3^FGFR3(Y373C) express the FGF-R3 gene carrying the activating mutation Y373C found in a human multiple myeloma cell line. 2N5A cells are NIH3T3 cells-transformed by the COL1A1/PDGFB rearrangement generating autocrine stimulation of PDGF-R. All NIH3T3 transfectants were maintained in DMEM plus 5% calf serum in a 10% CO2 atmosphere.
For whole-cell extract preparation, cells were lysed in sodium dodecyl sulfate (SDS) sample buffer (62.5 mM Tris-HCl (pH 6.8), 2% SDS) with 1 mM PMSF, 10 μg/ml pepstatin, 12.5 μg/ml leupeptin, 100 KIU aprotinin, 1 mM sodium orthovanadate, 1 mM sodium molybdate. Protein concentration was determined in appropriately diluted aliquots by the bicinchionic acid (BCA) method (Pierce, Rockford, Ill.), then samples were adjusted to a final concentration of 10% glycerol, 5% β-mercaptoethanol, 0.001% bromophenol blue.
For immunoprecipitation experiments, cells were treated with Cpd1 or solvent for the indicated times. Cell monolayers were rinsed twice with cold phosphate-buffered saline plus 0.1 mM sodium orthovanadate and then left for 20 min on ice in lysis buffer (50 mM HEPES pH7.6, 150 mM NaCl, 10% glycerol, 1% Triton X-100, 1.5 mM MgCl2, 1 mM EGTA, 100 mM NaF, 10 mM sodium pyrophosphate, 10 μg/ml antipain, 20 μg/ml chymostatin, 10 μg/ml E64, 1 mg/ml pefabloc SC). […] Protein concentration was determined by the BCA reagent (Pierce). […]

FGF-R3 mutant Y373C = molecular target: T2, FGF-R3 mutant Y373C (Homo sapiens, UniProt P22607, Y373C); assay: FGF-R3 (Y373C) autophosphorylation and expression in NIH3T3 transfectants; assay type: cell-based; details: 72 h
T2 construct: expressed in transfected cells; host or cells: NIH3T3 (mouse fibroblasts)
Protocol: FIG. 6. Inhibition of autophosphorylation and expression of FGF-R1 and FGF-R3 receptors in whole cells by Cpd1. A): Swiss3T3 cells were serum starved for 24 h and then treated with Cpd1 at the indicated concentrations, for 18 h. After stimulation with 100 ng/ml FGF for 5 min, whole cell lysates were prepared and subjected to Western blotting with anti-pTyr or anti-FGF-R1. Protein loading by anti-actin blot is shown. B): NIH3T3 transformed by the FGF-R3 mutant Y373C were treated with the indicated concentrations, for 72 h. Cell extracts were immunoprecipitated with anti-FGF-R3 and then subjected to Western blotting with anti p-Tyr or anti-FGF-R3.
The following human medullary thyroid carcinoma (MTC) cell lines were used in this study. The TT cell line derived from a MEN2A-associated MTC characterized by expression of the RET oncogene carrying the mutation C634W. The MZ-CRC-1 cell line derived from MEN2B-associated MTC characterized by expression of the RET oncogene carrying the mutation M918T. […]
as §1

T1 sequence (P08581 25-1390): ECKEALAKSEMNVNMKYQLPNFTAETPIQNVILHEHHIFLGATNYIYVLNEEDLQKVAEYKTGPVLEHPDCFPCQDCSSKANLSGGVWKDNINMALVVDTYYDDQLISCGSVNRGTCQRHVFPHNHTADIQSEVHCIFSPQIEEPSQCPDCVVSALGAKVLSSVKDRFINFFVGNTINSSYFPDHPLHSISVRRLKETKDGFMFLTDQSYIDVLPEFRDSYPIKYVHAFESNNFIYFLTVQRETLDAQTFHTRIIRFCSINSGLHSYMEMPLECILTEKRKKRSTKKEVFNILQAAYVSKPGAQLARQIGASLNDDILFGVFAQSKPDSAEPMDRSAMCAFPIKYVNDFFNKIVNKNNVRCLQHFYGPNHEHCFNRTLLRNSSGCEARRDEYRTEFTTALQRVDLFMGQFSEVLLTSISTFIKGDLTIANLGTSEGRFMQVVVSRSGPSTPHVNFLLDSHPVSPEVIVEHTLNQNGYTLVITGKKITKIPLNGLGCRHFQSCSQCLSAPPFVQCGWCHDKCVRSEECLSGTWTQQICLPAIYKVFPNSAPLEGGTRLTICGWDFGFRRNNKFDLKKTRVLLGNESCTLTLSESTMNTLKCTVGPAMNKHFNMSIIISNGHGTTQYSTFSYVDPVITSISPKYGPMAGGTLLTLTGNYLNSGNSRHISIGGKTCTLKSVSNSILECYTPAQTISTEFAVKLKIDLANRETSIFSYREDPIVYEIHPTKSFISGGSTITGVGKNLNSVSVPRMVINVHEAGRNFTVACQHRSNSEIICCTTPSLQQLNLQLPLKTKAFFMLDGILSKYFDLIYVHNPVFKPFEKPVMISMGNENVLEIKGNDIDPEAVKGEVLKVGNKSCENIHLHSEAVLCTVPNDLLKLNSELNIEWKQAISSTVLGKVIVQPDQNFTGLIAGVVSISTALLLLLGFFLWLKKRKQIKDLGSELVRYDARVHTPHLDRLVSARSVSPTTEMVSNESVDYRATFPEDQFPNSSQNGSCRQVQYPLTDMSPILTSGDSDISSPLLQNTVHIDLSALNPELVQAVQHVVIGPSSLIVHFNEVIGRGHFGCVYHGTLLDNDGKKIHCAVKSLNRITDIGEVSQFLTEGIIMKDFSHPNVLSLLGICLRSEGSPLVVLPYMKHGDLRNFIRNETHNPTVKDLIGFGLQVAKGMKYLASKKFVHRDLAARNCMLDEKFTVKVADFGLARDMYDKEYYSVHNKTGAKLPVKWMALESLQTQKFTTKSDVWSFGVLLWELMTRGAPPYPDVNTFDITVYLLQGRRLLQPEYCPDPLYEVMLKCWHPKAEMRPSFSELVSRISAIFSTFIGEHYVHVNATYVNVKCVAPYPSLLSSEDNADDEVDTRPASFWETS
T2 sequence (P22607 23-806 Y373C): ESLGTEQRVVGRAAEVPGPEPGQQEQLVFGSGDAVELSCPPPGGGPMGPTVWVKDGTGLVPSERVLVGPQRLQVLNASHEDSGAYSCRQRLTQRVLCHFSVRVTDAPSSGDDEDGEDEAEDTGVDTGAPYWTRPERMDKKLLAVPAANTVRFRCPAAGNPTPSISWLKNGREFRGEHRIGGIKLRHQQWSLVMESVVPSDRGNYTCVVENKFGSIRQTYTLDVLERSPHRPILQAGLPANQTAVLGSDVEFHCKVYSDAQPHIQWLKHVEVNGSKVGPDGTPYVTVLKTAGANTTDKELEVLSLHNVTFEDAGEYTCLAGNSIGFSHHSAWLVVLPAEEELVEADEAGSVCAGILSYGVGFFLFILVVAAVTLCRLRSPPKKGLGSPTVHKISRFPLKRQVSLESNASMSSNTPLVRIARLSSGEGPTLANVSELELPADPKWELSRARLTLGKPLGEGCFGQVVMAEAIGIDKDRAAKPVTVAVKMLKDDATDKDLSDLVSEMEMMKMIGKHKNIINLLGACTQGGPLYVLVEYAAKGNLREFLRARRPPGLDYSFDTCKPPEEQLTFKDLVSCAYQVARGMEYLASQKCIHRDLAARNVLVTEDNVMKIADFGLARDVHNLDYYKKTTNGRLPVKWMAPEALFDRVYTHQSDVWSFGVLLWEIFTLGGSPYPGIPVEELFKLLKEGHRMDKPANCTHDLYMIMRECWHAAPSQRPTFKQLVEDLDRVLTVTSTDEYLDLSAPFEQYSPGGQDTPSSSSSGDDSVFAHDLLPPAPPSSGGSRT

Question: With COc1cc2c(cc1OC)/C(=C\c1ccc(O)cc1)C(=O)N2 [Cpd 1, (E)-1,3-dihydro-5,6-dimethoxy-3-[(4-hydroxyphenyl)methylene]-2H-indol-2-one] as the compound, how does the Met expression (Met; TPC-1 cells) read?
Answer: reduction

Question: And the “HGF-induced Met tyrosine phosphorylation” value (Met; TPC-1 cells serum-starved, 60 μM for 18 h, 20 ng/ml HGF 10 min)?
Answer: abolished

Question: And the “Constitutive Met tyrosine phosphorylation (autophosphorylation)” value (Met; TPC-1 cells, 72 h)?
Answer: dose-dependent inhibition; also recorded: abolished

Question: What about the PDGF-R tyrosine phosphorylation (PDGF-R; 2N5A cells (autocrine stimulation), 72 h) of the same compound?
Answer: dose-dependent drug-induced inhibition

Question: And the PDGF-R expression (PDGF-R; 2N5A cells, 72 h)?
Answer: dose-dependent drug-induced inhibition

Question: And the PDGF-R tyrosine phosphorylation (PDGF-R; Swiss 3T3 cells serum starved, 18 h, 1 nM PDGF 5 min)?
Answer: dose-dependent drug-induced inhibition

Question: What about the PDGF-R expression (PDGF-R; Swiss3T3 cells, 18 h) of the same compound?
Answer: dose-dependent drug-induced inhibition

Question: What about the “Concentration causing full inhibition of PDGF-R phosphorylation” value (PDGF-R; whole cells (FIG. 5)) of the same compound?
Answer: higher than 15 μM

Question: What about the “FGF-R3 (Y373C) expression” value (FGF-R3 mutant Y373C) of the same compound?
Answer: dose-dependent inhibition

Question: And the “FGF-R3 (Y373C) tyrosine phosphorylation” value (FGF-R3 mutant Y373C)?
Answer: dose-dependent inhibition
